Laboratory results published in patent US7547440B2, “T-cell epitope peptides” (Meiji Dairies Corporation, priority 1996, dated 2009).

Test system: T-cell line stimulated by Cha o 2 from patients with Japanese cypress pollinosis
Experiment: Growth response ([3H]thymidine uptake) of Cha o 2-stimulated T-cell lines to overlapping peptides
Assay type: cell-based, human
Conditions: Cha o 2 overlapping peptides, final concentration 1 μM; T-cell lines from 20 patients; FIG. 5, FIG. 8
Text: To obtain the T-cell epitope peptides of the present invention, overlapping peptides that cover the entire primary structures of Cha o 1 and Cha o 2 were synthesized; each peptide consists of the adequate number of amino acid residues (12 to 20 residues). The peptide of the present invention stimulates and/or suppresses the activity of T cells derived from patients with pollinosis caused by tree pollens in springtime. In other words, the peptide of the present invention can induce proliferation of T cells or responses of T cells such as secretion of lymphokines, and/or can induce T-cell anergy (non-responsiveness). T-cell epitope sites on the allergen molecules can be identified using T-cell growth as an index in accordance with the method described in JP-A-Hei 8-47392. In particular, T-cell lines or T-cell clones, which are specifically reactive with Cha o 1 and Cha o 2, are established for every patient from peripheral lymphocytes of a patient with Japanese cypress pollinosis. The T-cell lines or T-cell clones are cultured in the presence of each peptide of the overlapping peptides. The epitope sites are identified by measuring the proliferation of T cells in the presence of the peptide (e.g., uptake of [^3H]thymidine into the cells) and calculating a stimulation index. […] Based on the data obtained thus, a mean stimulation index for each peptide is calculated for each patient group. […]

“2-14: overlapping peptide of Japanese cypress pollen allergen Cha o 2, 20 residues (ARWKNSKIWLQFAQLTDFNL)” was tested, and the “T-cell stimulating activity (contains at least one T-cell epitope)” value was “possess a T-cell stimulating activity”.
